system: DU-145 cells; experiment: Cell proliferation assay (Alamar-Blue), proliferation inhibition of DU-145 cells; format: cell-based; conditions: Homo sapiens, 72 h, 3 days incubation, Alamar-Blue fluorescence
Method: Protocol for Cell Proliferation Assay:
This homogeneous assay involves simply adding a single reagent, the Alamar-Blue, to the cell culture and measuring the fluorescence intensity (excitation wavelength=530 nm, emission wavelength=590 nm) after an incubation step. The Alamar-Blue reagent utilizes the redox dye resazurin, which is not fluorescent, but upon reduction by metabolically active cells is converted into a highly fluorescent product (resorufin). A decrease in fluorescence in the presence of a test compound indicates reduced proliferation. This change in signal is proportional to the number of viable cells and used as a measure of relative cytotoxicity. Therefore, the fluorescence intensity observed in this assay is a true measure of the viable proliferative cells.
• 2 mM stock of Paclitaxel in DMSO. • DMSO (Panreac, Cat. number 141954.1611) • Resazurin sodium salt (Sigma, R-7071). 50 mM stock in DMSO. Equipment • Biomek FX Laboratory Automated Workstation (Beckman Coulter Inc., Fullerton, Calif.) • CO2 incubator (VWR Science, USA) • Bright line Hemacytometer (Z359629, Sigma, IL, USA) Materials • 384-deep well plates (Greiner, N^o 781270) • 384-well optical bottom tissue culture plates (Greiner, No. 82051-282) Propagation CONDITIONS: 37° C., air 95%; carbon dioxide (CO2) 5%, humidified atmosphere. Subculturing: • Cells were grown in 175 cm^2 flasks to 90-100% of confluency. • Culture medium (RPMI-1640 (Paneco, C310)+10% fetal bovine serum (FBS)) was aspirated and cell layer was briefly rinsed with 0.53 mM EDTA (ethylenediaminetetraacetic acid) solution to remove all traces of serum. • 2 ml of 0.2% trypsin/0.53 mM EDTA solution was added to cells. • Flasks were returned to incubator for 5 min to allow cells detachment. • Add 6.0 ml of culture medium. • Single cell suspension was created by gently pipetting. • Cells are counted using a Hematocytometer and suspension with desirable cell concentration is prepared.
To test proliferation inhibition DU-145 cells were plated in 384-well plate at the density 4000 cells/well. Next day 4 mM solutions of compounds in DMSO were diluted 100 times in medium and added to cells to final concentration 20 uM (40 ul of cells+40 ul of compounds). Taxol at final concentration 1 uM was used as positive control. Cells were incubated with compounds for 3 days. After that Alamar-Blue was added to cells to final concentration of 50 uM. After incubation for 4-6 hours at 37° C., fluorescence in plate was read using fluorescence plate reader Wallac 1420 (530 nm excitation filter, 590 nm emission filter). Proliferation inhibition was calculated using formula: % INH=100*((Fnegative−compound signal)/(Fnegative−Fpositive)), • Fnegative—DMSO was added to cells (viable cells) • Fpositive—taxol (1 uM) was added to cells (number of cells at the first day of incubation)

How did the IC50 turn out when `CC1=Cc2c3c(ccc2=N1)=CCCN3C(=O)c1ccccc1C` [Example 7, (8-methyl-2,3-dihydro-1H-pyrrolo[2,3-h]quinolin-1-yl)(2-methylphenyl)methanone] was run?
The IC50 was 17.2 µM.

How did the IC50 turn out when `O=C(c1ccccc1Br)N1CCc2cc3ccccc3nc21` [Example 9, (2-bromophenyl)(2,3-dihydro-1H-pyrrolo[2,3-b]quinolin-1-yl)methanone] was run?
Its IC50 is 238 µM.

With `COc1ccccc1C(=O)N1CCc2cc3ccccc3nc21` [Example 4, 2,3-dihydro-1H-pyrrolo[2,3-b]quinolin-1-yl(2-methoxyphenyl)methanone] as the compound, how does the IC50 read?
The IC50 was 3.62 µM.

`CC1=Cc2c3c(ccc2=N1)=CCCN3C(=O)c1cccc(F)c1` [Example 10, (3-fluorophenyl)(8-methyl-2,3-dihydro-1H-pyrrolo[2,3-h]quinolin-1-yl)methanone] was tested. Which IC50 did it give?
The IC50 was 4400 µM.

Which IC50 does the source give for `COc1cccc(C(=O)N2CCc3cc4cc(C)ccc4nc32)c1` [Example 3, (3-methoxyphenyl)(6-methyl-2,3-dihydro-1H-pyrrolo[2,3-b]quinolin-1-yl)methanone] here?
The IC50 was 0.613 µM.

How did the IC50 turn out when `COc1ccccc1C(=O)N1CCc2cc3cccc(C)c3nc21` [Example 6, (2-methoxyphenyl)(8-methyl-2,3-dihydro-1H-pyrrolo[2,3-b]quinolin-1-yl)methanone] was run?
Its IC50 is 16.1 µM.

For `Cc1ccc(C(=O)N2CCC=c3cc(C)c4c(c32)C=CN=4)cc1` [Example 5, (6-methyl-2,3-dihydro-1H-pyrrolo[2,3-h]quinolin-1-yl)(4-methylphenyl)methanone], which IC50 is on record?
Its IC50 is 10.3 µM.

`COc1ccc(C(=O)N2CCc3cc4cc(C)ccc4nc32)cc1OC` [Example 2, (3,4-dimethoxyphenyl)(6-methyl-2,3-dihydro-1H-pyrrolo[2,3-b]quinolin-1-yl)methanone] was tested. Which IC50 did it give?
Its IC50 is 0.183 µM.

`COc1cc(C(=O)N2CCc3cc4ccccc4nc32)cc(OC)c1OC` [Example 1, 2,3-dihydro-1H-pyrrolo[2,3-b]quinolin-1-yl(3,4,5-trimethoxyphenyl)methanone] was tested. Which IC50 did it give?
The IC50 was 0.114 µM.

For `Cc1cccc2cc3c(nc12)N(C(=O)c1ccccc1F)CC3` [Example 8, (2-fluorophenyl)(8-methyl-2,3-dihydro-1H-pyrrolo[2,3-b]quinolin-1-yl)methanone], which IC50 is on record?
The IC50 was 134 µM.

Which IC50 does the source give for `Cc1cccc2cc3c(nc12)N(C(=O)c1ccccc1Br)CC3` [Example 11, (2-bromophenyl)(8-methyl-2,3-dihydro-1H-pyrrolo[2,3-b]quinolin-1-yl)methanone] here?
The IC50 was 15000 µM.

Reference: patent publication US8420815B1, “Anti-cancer agents based on N-acyl-2, 3-dihydro-1H-pyrrolo[2,3-b]quinoline derivatives and a method of making” (U.S. Department of Energy, priority 2010, dated 2013)
